{"source": "patent US10081631B2", "about": "“2-(1H-indazol-3-yl)-1H-imidazo[4,5-C]pyridine and therapeutic uses thereof” (Samumed, LLC, priority 2014, dated 2018)", "key": {"[1]": {"tested_on": "Wnt activity (Sp5-Luc reporter, SW480 colon carcinoma cells)", "test": "Screening assay for Wnt activity: Sp5-Luc reporter gene assay in SW480 cells", "assay_type": "cell-based", "settings": "Homo sapiens, 42 h incubation, luminescence", "text": "The screening assay for Wnt activity is described as follows. Reporter cell lines can be generated by stably transducing cancer cell lines (e.g., colon cancer) or primary cells (e.g., IEC-6 intestinal cells) with a lentiviral construct that includes a Wnt-responsive promoter driving expression of the firefly luciferase gene.\nSW480 colon carcinoma cells were transduced with a lentiviral vector expressing luciferase with a human Sp5 promoter consisting of a sequence of eight TCF/LEF binding sites. SW480 cells stably expressing the Sp5-Luc reporter gene and a hygromycin resistance gene were selected by treatment with 150 μg/ml of hygromycin for 7 days. These stably transduced SW480 cells were expanded in cell culture and used for all further screening activities. For Sp5-Luc reporter gene assays, the cells were plated at 10,000 cells/well in 96-well plates with growth medium containing 10% fetal calf serum and incubated overnight at 37° C. and 5% CO2. Each compound was dissolved in DMSO as a 10 mM stock in standard j-vials and used to prepare compound source plates in dose-response format with 3-fold serial dilutions and a 10 mM top concentration. Compound transfer from serially diluted source plates to assay plates containing the cells was accomplished using a pintool (Multimek 96, Beckman equipped with V&P Scientific FP1S50H pins) based liquid handling protocol. This protocol used a slotted pin to transfer 50 nl of compound from a source plate well to an assay plate well containing 50 μl of cells in growth medium. […] Control wells received 50 nl of DMSO treatment for normalization and calculating IC50 values. The treated cells were incubated at 37° C. and 5% CO2 for an additional forty-two hours. Following incubation, the growth medium was removed and 50 μl of BrightGlo luminescence reagent (Promega) was added to each well of the 96-well assay plates. The plates were placed on an orbital shaker for 5 min and then luminescence was quantified on the Victor3 (Perkin Elmer) plate reader. Readings were normalized to DMSO only treated cells, and normalized activities were utilized for IC50 calculations using the dose-response log (inhibitor) vs. response-variable slope (four parameters) nonlinear regression feature available in GraphPad Prism 5.0 or 6.0."}, "[2]": {"tested_on": "primary human fibroblasts derived from IPF patients (LL29 cells)", "test": "Inhibition of fibrosis: TGF-β1-treated primary human fibroblasts from IPF patients (LL29), αSMA staining", "assay_type": "cell-based", "settings": "Fibroblast, 96 h, TGF-β1 20 ng/mL, 4 days, % αSMA-positive cells", "text": "The above synthesized compounds were screened using primary human fibroblasts (derived from IPF patients) treated with TGF-β1 to determine their ability to inhibit the fibrotic process.\nPrimary human fibroblasts derived from IPF patients (LL29 cells) [^1Xiaoqiu Liu, et. al., “Fibrotic Lung Fibroblasts Show Blunted Inhibition by cAMP Due to Deficient cAMP Response Element-Binding Protein Phosphorylation”, Journal of Pharmacology and Experimental Therapeutics (2005), 315(2), 678-687; ^2Watts, K. L., et. al., “RhoA signaling modulates cyclin D1 expression in human lung fibroblasts; implications for idiopathic pulmonary fibrosis”, Respiratory Research (2006), 7(1), 88] were obtained from American Type Culture Collection (ATCC) and expanded in F12 medium supplemented with 15% Fetal Bovine Serum and Penicillin/Streptomycin.\nEach compound was dissolved in DMSO as a 10 mM stock and used to prepare compound source plates. Serial dilution (1:2, 11-point dose-response curves from 10 μM to 1.87 nM) and compound transfer was performed using the ECHO 550 (Labcyte, Sunnyvale, Calif.) into 384-well clear bottom assay plates (Greiner Bio-One) with appropriate DMSO backfill for a final DMSO concentration of 0.1%. LL29 cells were plated at 1,500 cells/well in 80 μl/well F12 medium supplemented with 1% Fetal Bovine Serum. One hour after addition of the cells, TGF-β1 (Peprotech; 20 ng/mL) was added to the plates to induce fibrosis (ref 1 and 2 above). Wells treated with TGF-β1 and containing DMSO were used as controls. Cells were incubated at 37° C. and 5% CO2 for 4 days. Following incubation for 4 days, SYTOX green nucleic acid stain (Life Technologies [Thermo Fisher Scientific]) was added to the wells at a final concentration of 1 uM and incubated at room temperature for 30 min. Cells were then fixed using 4% formaldehyde (Electron Microscopy Sciences), washed 3 times with PBS followed by blocking and permeabilization using 3% Bovine Serum Albumin (BSA; Sigma) and 0.3% Triton X-100 (Sigma) in PBS. Cells were then stained with antibody specific to α-smooth muscle actin (αSMA; Abcam) (ref 1 and 2 above) in 3% Bovine Serum Albumin (BSA; Sigma) and 0.3% Triton X-100 (Sigma) in PBS, and incubated overnight at 4° C. Cells were then washed 3 times with PBS, followed by incubation with Alexa Flor-647 conjugated secondary antibody (Life Technologies [Thermo Fisher Scientific]) and DAPI at room temperature for 1 hour. Cells were then washed 3 times with PBS and plates were sealed for imaging. αSMA staining was imaged by excitation at 630 nm and emission at 665 nm and quantified using the Compartmental Analysis program on the CellInsight CX5 (Thermo Scientific). Dead or apoptotic cells were excluded from analysis based on positive SYTOX green staining. % of total cells positive for αSMA were counted in each well and normalized to the average of 11 wells treated with TGF-β1 on the same plate using Dotmatics' Studies Software. The normalized averages (fold change over untreated) of 3 replicate wells for each compound concentration were used to create dose-responses curves and EC50 values were calculated using non-linear regression curve fit in the Dotmatics' Studies Software. The EC50 values are reported."}}}
{"compound": "CCC(=O)Nc1cncc(-c2ccc3[nH]nc(-c4nc5c(-c6cccc(F)c6)nccc5[nH]4)c3c2)c1", "note": "[Compound 1, N-(5-(3-(4-(3-Fluorophenyl)-1H-imidazo[4,5-c]pyridin-2-yl)-1H-indazol-5-yl)pyridin-3-yl)propionamide]", "values": [{"measurement": "IC50", "setting": "[1]", "value": 1, "unit": "nM"}, {"measurement": "EC50", "setting": "[2]", "value": 20, "unit": "nM"}]}
{"compound": "CC(C)CC(=O)Nc1cncc(-c2ccc3[nH]nc(-c4nc5c(-c6cccc(F)c6)nccc5[nH]4)c3c2)c1", "note": "[Compound 2, N-(5-(3-(4-(3-Fluorophenyl)-1H-imidazo[4,5-c]pyridin-2-yl)-1H-indazol-5-yl)pyridin-3-yl)-3-methylbutanamide]", "values": [{"measurement": "IC50", "setting": "[1]", "value": 5, "unit": "nM"}, {"measurement": "EC50", "setting": "[2]", "value": 9, "unit": "nM"}]}
{"compound": "CN(C)c1cncc(-c2ccc3[nH]nc(-c4nc5c(-c6cccc(F)c6)nccc5[nH]4)c3c2)c1", "note": "[Compound 7, 5-(3-(4-(3-Fluorophenyl)-1H-imidazo[4,5-c]pyridin-2-yl)-1H-indazol-5-yl)-N,N-dimethylpyridin-3-amine]", "values": [{"measurement": "IC50", "setting": "[1]", "value": 4, "unit": "nM"}, {"measurement": "EC50", "setting": "[2]", "value": 9, "unit": "nM"}]}
{"compound": "CN(C)Cc1cncc(-c2ccc3[nH]nc(-c4nc5c(-c6cccc(F)c6)nccc5[nH]4)c3c2)c1", "note": "[Compound 13, 1-(5-(3-(4-(3-Fluorophenyl)-1H-imidazo[4,5-c]pyridin-2-yl)-1H-indazol-5-yl)pyridin-3-yl)-N,N-dimethylmethanamine]", "values": [{"measurement": "IC50", "setting": "[1]", "value": 1, "unit": "nM"}, {"measurement": "EC50", "setting": "[2]", "value": 9, "unit": "nM"}]}
{"compound": "O=C(Nc1cncc(-c2ccc3[nH]nc(-c4nc5c(-c6cccc(F)c6)nccc5[nH]4)c3c2)c1)C1CC1", "note": "[Compound 19, N-(5-(3-(4-(3-Fluorophenyl)-1H-imidazo[4,5-c]pyridin-2-yl)-1H-indazol-5-yl)pyridin-3-yl)cyclopropanecarboxamide]", "values": [{"measurement": "IC50", "setting": "[1]", "value": 1, "unit": "nM"}, {"measurement": "EC50", "setting": "[2]", "value": 9, "unit": "nM"}]}
{"compound": "O=C(Nc1cncc(-c2ccc3[nH]nc(-c4nc5c(-c6cccc(F)c6)nccc5[nH]4)c3c2)c1)C1CCCC1", "note": "[Compound 21, N-(5-(3-(4-(3-Fluorophenyl)-1H-imidazo[4,5-c]pyridin-2-yl)-1H-indazol-5-yl)pyridin-3-yl)cyclopentanecarboxamide]", "values": [{"measurement": "IC50", "setting": "[1]", "value": 12.8, "unit": "nM"}, {"measurement": "EC50", "setting": "[2]", "value": 317, "unit": "nM"}]}
{"compound": "Fc1cccc(-c2nccc3[nH]c(-c4n[nH]c5ccc(-c6cncc(CN7CCC(F)(F)C7)c6)cc45)nc23)c1", "note": "[Compound 25, 2-(5-(5-((3,3-Difluoropyrrolidin-1-yl)methyl)pyridin-3-yl)-1H-indazol-3-yl)-4-(3-fluorophenyl)-1H-imidazo[4,5-c]pyridine]", "values": [{"measurement": "IC50", "setting": "[1]", "value": 10, "unit": "nM"}, {"measurement": "EC50", "setting": "[2]", "value": 56, "unit": "nM"}]}
{"compound": "CC(C)CC(=O)Nc1cncc(-c2ccc3[nH]nc(-c4nc5c(-c6ccc(F)cc6)nccc5[nH]4)c3c2)c1", "note": "[Compound 28, N-(5-(3-(4-(4-Fluorophenyl)-1H-imidazo[4,5-c]pyridin-2-yl)-1H-indazol-5-yl)pyridin-3-yl)-3-methylbutanamide]", "values": [{"measurement": "IC50", "setting": "[1]", "value": 9, "unit": "nM"}, {"measurement": "EC50", "setting": "[2]", "value": 9, "unit": "nM"}]}
{"compound": "CC(C)(C)C(=O)Nc1cncc(-c2ccc3[nH]nc(-c4nc5c(-c6ccc(F)cc6)nccc5[nH]4)c3c2)c1", "note": "[Compound 34, N-(5-(3-(4-(4-fluorophenyl)-1H-imidazo[4,5-c]pyridin-2-yl)-1H-indazol-5-yl)pyridin-3-yl)pivalamide]", "values": [{"measurement": "IC50", "setting": "[1]", "value": 13, "unit": "nM"}, {"measurement": "EC50", "setting": "[2]", "value": 9, "unit": "nM"}]}
{"compound": "CC(C)Nc1cncc(-c2ccc3[nH]nc(-c4nc5c(-c6ccc(F)cc6)nccc5[nH]4)c3c2)c1", "note": "[Compound 38, 5-(3-(4-(4-Fluorophenyl)-1H-imidazo[4,5-c]pyridin-2-yl)-1H-indazol-5-yl)-N-isopropylpyridin-3-amine]", "values": [{"measurement": "IC50", "setting": "[1]", "value": 42.9, "unit": "nM"}, {"measurement": "EC50", "setting": "[2]", "value": 126, "unit": "nM"}]}
{"compound": "Fc1ccc(-c2nccc3[nH]c(-c4n[nH]c5ccc(-c6cncc(CN7CCCC7)c6)cc45)nc23)cc1", "note": "[Compound 40, 4-(4-Fluorophenyl)-2-(5-(5-(pyrrolidin-1-ylmethyl)pyridin-3-yl)-1H-indazol-3-yl)-1H-imidazo[4,5-c]pyridine]", "values": [{"measurement": "IC50", "setting": "[1]", "value": 75, "unit": "nM"}, {"measurement": "EC50", "setting": "[2]", "value": 24, "unit": "nM"}]}
{"compound": "O=C(Nc1cncc(-c2ccc3[nH]nc(-c4nc5c(-c6ccc(F)cc6)nccc5[nH]4)c3c2)c1)C1CCC1", "note": "[Compound 46, N-(5-(3-(4-(4-Fluorophenyl)-1H-imidazo[4,5-c]pyridin-2-yl)-1H-indazol-5-yl)pyridin-3-yl)cyclobutanecarboxamide]", "values": [{"measurement": "IC50", "setting": "[1]", "value": 10, "unit": "nM"}, {"measurement": "EC50", "setting": "[2]", "value": 9, "unit": "nM"}]}
{"compound": "Fc1ccc(-c2nccc3[nH]c(-c4n[nH]c5ccc(-c6cncnc6)cc45)nc23)cc1", "note": "[Compound 52, 4-(4-Fluorophenyl)-2-(5-(pyrimidin-5-yl)-1H-indazol-3-yl)-1H-imidazo[4,5-c]pyridine]", "values": [{"measurement": "IC50", "setting": "[1]", "value": 25, "unit": "nM"}, {"measurement": "EC50", "setting": "[2]", "value": 539, "unit": "nM"}]}
{"compound": "Nc1cncc(-c2ccc3[nH]nc(-c4nc5c(-c6ccccc6F)nccc5[nH]4)c3c2)c1", "note": "[Compound 55, 5-(3-(4-(2-Fluorophenyl)-1H-imidazo[4,5-c]pyridin-2-yl)-1H-indazol-5-yl)pyridin-3-amine]", "values": [{"measurement": "IC50", "setting": "[1]", "value": 4.1, "unit": "nM"}, {"measurement": "EC50", "setting": "[2]", "value": 17, "unit": "nM"}]}
{"compound": "CN(C)c1cncc(-c2ccc3[nH]nc(-c4nc5c(-c6ccccc6F)nccc5[nH]4)c3c2)c1", "note": "[Compound 59, 5-(3-(4-(2-Fluorophenyl)-1H-imidazo[4,5-c]pyridin-2-yl)-1H-indazol-5-yl)-N,N-dimethylpyridin-3-amine]", "values": [{"measurement": "IC50", "setting": "[1]", "value": 9.4, "unit": "nM"}, {"measurement": "EC50", "setting": "[2]", "value": 18, "unit": "nM"}]}
{"compound": "CC(C)C(=O)Nc1cncc(-c2ccc3[nH]nc(-c4nc5c(-c6ccccc6F)nccc5[nH]4)c3c2)c1", "note": "[Compound 61, N-(5-(3-(4-(2-Fluorophenyl)-1H-imidazo[4,5-c]pyridin-2-yl)-1H-indazol-5-yl)pyridin-3-yl)isobutyramide]", "values": [{"measurement": "IC50", "setting": "[1]", "value": 5, "unit": "nM"}, {"measurement": "EC50", "setting": "[2]", "value": 79, "unit": "nM"}]}
{"compound": "FC1(F)CCN(c2nccc3[nH]c(-c4n[nH]c5ccc(-c6cccnc6)cc45)nc23)CC1", "note": "[Compound 2273, 4-(4,4-Difluoropiperidin-1-yl)-2-(5-(pyridin-3-yl)-1H-indazol-3-yl)-1H-imidazo[4,5-c]pyridine]", "values": [{"measurement": "IC50", "setting": "[1]", "value": 50, "unit": "nM"}]}
{"compound": "CN1CCN(c2nccc3[nH]c(-c4n[nH]c5ccc(-c6cncc(F)c6)cc45)nc23)CC1", "note": "[Compound 2276, 2-(5-(5-Fluoropyridin-3-yl)-1H-indazol-3-yl)-4-(4-methylpiperazin-1-yl)-1H-imidazo[4,5-c]pyridine]", "values": [{"measurement": "IC50", "setting": "[1]", "value": 439, "unit": "nM"}]}
{"compound": "Fc1cncc(-c2ccc3[nH]nc(-c4nc5c(N6CCC(F)(F)CC6)nccc5[nH]4)c3c2)c1", "note": "[Compound 2277, 4-(4,4-Difluoropiperidin-1-yl)-2-(5-(5-fluoropyridin-3-yl)-1H-indazol-3-yl)-1H-imidazo[4,5-c]pyridine]", "values": [{"measurement": "IC50", "setting": "[1]", "value": 315, "unit": "nM"}]}
{"compound": "Cn1cc(-c2ccc3[nH]nc(-c4nc5c(N6CCC(F)(F)CC6)nccc5[nH]4)c3c2)cn1", "note": "[Compound 2281, 4-(4,4-Difluoropiperidin-1-yl)-2-(5-(1-methyl-1H-pyrazol-4-yl)-1H-indazol-3-yl)-1H-imidazo[4,5-c]pyridine]", "values": [{"measurement": "IC50", "setting": "[1]", "value": 20, "unit": "nM"}]}
